Assays:
human GPR40 = target: T1, human GPR40 (Homo sapiens, UniProt O14842); experiment: In vitro Ca2+ mobilization, CHO-k1 cells stably expressing human GPR40; format: cell-based; settings: for AC50: read-out: Ca2+ hGPR40 AC50
T1 construct: expressed in transfected cells; host or cells: CHO-k1
Experimental: (§1) GPR120/40 Activation: In Vitro Ca^2+ Mobilization
(§2) The activation of GPR120/40 by all compounds was determined by measuring changes in intracellular calcium levels using a Ca^2+ sensitive fluorescent dye.
(§3) The experiments were performed using CHO-k1 cells stably expressing the human GPR120 or GPR40. Cells were seeded 10000 cells/well in 384-plates in complete medium and grown overnight at 37° C., 5% CO2. 24 h after seeding, cell culture media was removed and cells were loaded with the fluorescent Ca^2+ indicator (Fluo-8 NW dye in Tyrode's buffer). Dye-loaded cell plates were incubated for 1 h at room temperature under a yellow light sodium lamp.
(§4) Cell were treated with test compounds and controls at 10, 30 and 60 μM. The kinetic response was monitored over a period of 7 minutes (using FLIPRTETRA system). A second injection of 3× concentrated reference agonist at ˜EC50 were then administered to cells and the signal of the emitted fluorescence was measured over a period of additional 3 minutes. The agonist effect is expressed as a percentage of activation, with 100% activation being a result in which the Response Values of the test wells reach a level identical to the one of the Stimulator Controls (alpha linolenic acid reference agonist EC100). 0% activation is a result in which the Response Values of the test wells reach a level identical to the one of the Neutral Controls (assay buffer) in the AGO_KRV (Agonist Kinetic Response Value) response value.

STC-1 cells = experiment: In vitro GLP-1 secretion in STC-1 cells (ELISA); format: cell-based, murine; settings: for fold induction at 30 µM: Mus musculus, STC-1, 0.5 h, compound at 30 μM for 30 minutes, STC-1 cells, read-out: GLP-1 RELEASE STC-1, fold of increase over DMSO
Experimental: (§5) GPR120/40 Activation: In Vitro GLP-1 Secretion
(§6) 2×10^5 STC-1 cells were seeded in a 12-plate and 24 hours later were treated with selected compounds. 1×10^6 NCI-H716 cells were differentiated in matrigel-coated 12-plate and treated 48 h hours later.
(§7) The day of the experiment, wells were washed once with 1 ml of PBS and then cells were stimulated with 0.5 ml of DMEM (w/o serum, w/o phenol-red) containing 30 μM of selected compounds in STC1 and 100 μM in differentiated NCIH716 for 30 minutes. DMSO has been used as negative control, α-linolenic acid (ALA) (endogenous agonist) as positive control. After stimulations, supernatants were collected, centrifuged at 4000 rpm for 4′ at 4° C., and used for the GLP1 detection by ELISA.

NCI-H716 cells = experiment: In vitro GLP-1 secretion in differentiated NCI-H716 cells (ELISA); format: cell-based, human; settings: for fold induction at 100 µM: Homo sapiens, NCI-H716, 0.5 h, compound at 100 μM for 30 minutes, differentiated NCI-H716 cells, read-out: GLP-1 RELEASE NCI, fold of increase over DMSO
Experimental: as §5, §6, §7

human GPR120 = target: T2, human GPR120 (Homo sapiens, UniProt Q5NUL3); experiment: In vitro Ca2+ mobilization, CHO-k1 cells stably expressing human GPR120; format: cell-based; settings: for AC50: intracellular calcium, CHO-k1 cells expressing human GPR120, read-out: Ca2+ hGPR120 AC50
T2 construct: expressed in transfected cells; host or cells: CHO-k1
T2 sequence (Q5NUL3 1-361): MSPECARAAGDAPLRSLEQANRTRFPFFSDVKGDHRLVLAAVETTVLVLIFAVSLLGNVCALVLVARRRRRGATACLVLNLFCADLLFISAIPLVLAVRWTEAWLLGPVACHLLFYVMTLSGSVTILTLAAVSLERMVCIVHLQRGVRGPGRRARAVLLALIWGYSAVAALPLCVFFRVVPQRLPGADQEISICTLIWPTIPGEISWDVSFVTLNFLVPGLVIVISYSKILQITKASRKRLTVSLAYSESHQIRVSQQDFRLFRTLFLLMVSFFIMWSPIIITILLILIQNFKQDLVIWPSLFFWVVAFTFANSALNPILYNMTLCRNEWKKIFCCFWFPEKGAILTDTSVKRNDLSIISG
Experimental: as §1, §2, §3, §4

[1] = intracellular calcium, CHO-k1 cells expressing human GPR40

T1 sequence (O14842 whole entry): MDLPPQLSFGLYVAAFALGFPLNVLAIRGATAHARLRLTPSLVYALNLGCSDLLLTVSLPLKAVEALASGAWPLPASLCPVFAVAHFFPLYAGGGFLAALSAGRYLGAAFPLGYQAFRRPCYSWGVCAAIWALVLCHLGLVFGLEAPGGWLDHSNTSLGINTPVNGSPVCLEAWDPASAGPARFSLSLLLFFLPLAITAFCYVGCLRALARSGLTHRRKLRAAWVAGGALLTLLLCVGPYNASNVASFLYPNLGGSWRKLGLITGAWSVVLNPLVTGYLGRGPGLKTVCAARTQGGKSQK

AC50 (human GPR40; [1]) [µM] | AC50 (human GPR120) [µM] | agonistic activity on GPR40 (AC50 in the calcium mobilization assay), in words (human GPR40) | agonistic activity on GPR120 (AC50 in the calcium mobilization assay), in words (human GPR120) | Ca2+ hGPR40 AC50 (human GPR40; [1]) | Structure (SMILES) | fold induction at 30 µM (STC-1 cells) | fold induction at 100 µM (NCI-H716 cells) | GLP-1 secretion in STC1 (murine) cells, in words (STC-1 cells) | GLP-1 secretion in NCI-H716 (human) cells, in words (NCI-H716 cells)
2.3 | 6.1 | – | – | – | Cc1cc(OCCCS(C)(=O)=O)cc(C)c1NS(=O)(=O)c1cccc(CCCCCCC(=O)O)c1 [Example 35, 7-(3-(N-(2,6-dimethyl-4-(3(methylsulfonyl)propoxy)phenyl)sulfamoyl)phenyl)heptanoic acid] | 4.3 ± 0.61 | 4.2 ± 0.25 | – | –
140 | 5.24 | low microMolar range | low microMolar range | – | Cc1cc(F)cc(C)c1NS(=O)(=O)c1cccc(CCCCCCC(=O)O)c1 [Example 1, 7-(3-(N-(4-fluoro-2,6-dimethylphenyl)sulfamoyl)phenyl)heptanoic acid] | 1.87 ± 0.5 | 1.08 ± 0.1 | efficacious | efficacious
13.3 | 5.9 | – | – | – | Cc1cc(F)cc(C)c1C(=O)NS(=O)(=O)c1cccc(CCCCCCC(=O)O)c1 [Example 24, 7-{3-[(4-fluoro-2,6-dimethylbenzoyl)sulfamoyl]phenyl}heptanoic acid] | 4.19 ± 0.72 | 5.01 ± 0.99 | – | –
– | – | – | – | – | CC/C=C\C/C=C\C/C=C\CCCCCCCC(=O)O [ALA, α-linolenic acid, reference compound] | 6.61 | 1.52 | – | –
31.2 | 37.1 | – | – | – | O=C(O)CCCCCCc1cccc(S(=O)(=O)Nc2csnc2-c2ccccc2)c1 [Example 30, 7-(3-(N-(3-phenylisothiazol-4-yl)sulfamoyl)phenyl)heptanoic acid] | 2.94 ± 1.12 | 2.13 ± 1.83 | – | –
10.7 | 13.1 | – | – | – | Cc1n[nH]c(C)c1NS(=O)(=O)c1cccc(CCCCCCC(=O)O)c1 [Example 12, 7-(3-(N-(3,5-dimethyl-1H-pyrazol-4-yl)sulfamoyl)phenyl)heptanoic acid] | 1.04 ± 0.32 | 1.41 ± 0.36 | – | –
41.3 | 4.36 | low microMolar range | low microMolar range | – | Cc1cc(Cl)cc(C)c1NS(=O)(=O)c1cccc(CCCCCCC(=O)O)c1 [Example 4, 7-(3-(N-(4-chloro-2,6-dimethylphenyl)sulfamoyl)phenyl)heptanoic acid] | 4.1 ± 0.54 | 1.92 ± 0.57 | efficacious | efficacious
3.2 | 9.3 | – | – | – | Cc1cc(O)cc(C)c1NS(=O)(=O)c1cccc(CCCCCCC(=O)O)c1 [Example 31, 7-(3-(N-(4-hydroxy-2,6-dimethylphenyl)sulfamoyl)phenyl)heptanoic acid] | 3.55 ± 0.87 | 3.7 ± 0.56 | – | –
8.2 | 6.5 | – | – | – | Cc1nnc(NS(=O)(=O)c2cccc(CCCCCCC(=O)O)c2)[nH]1 [Example 20, 7-(3-(N-(5-methyl-4H-1,2,4-triazol-3-yl)sulfamoyl)phenyl)heptanoic acid] | 3.36 ± 0.37 | 3.31 ± 0.28 | – | –
12.4 | 7 | – | – | – | Cc1cc(OCc2ccccc2)cc(C)c1NS(=O)(=O)c1cccc(CCCCCCC(=O)O)c1 [Example 34, 7-(3-(N-(4-(benzyloxy)-2,6-dimethylphenyl)sulfamoyl)phenyl)heptanoic acid] | 5.5 ± 0.73 | 4.58 ± 0.26 | – | –
11.7 | 6 | low microMolar range | low microMolar range | – | Cc1cc(C(F)(F)F)cc(C)c1NS(=O)(=O)c1cccc(CCCCCCC(=O)O)c1 [Example 6, 7-(3-(N-(2,6-dimethyl-4-(trifluoromethyl)phenyl)sulfamoyl)phenyl)heptanoic acid] | 4.2 ± 0.45 | 2.54 ± 0.52 | efficacious | efficacious
20.8 | 17.4 | – | – | – | Cc1nc(NS(=O)(=O)c2cccc(CCCCCCC(=O)O)c2)sc1C [Example 14, 7-(3-(N-(4,5-dimethylthiazol-2-yl)sulfamoyl)phenyl)heptanoic acid] | 1.37 ± 0.11 | 1.81 ± 0.67 | – | –
11.2 | 7.09 | low microMolar range | low microMolar range | – | Cc1cc(C)c(CNS(=O)(=O)c2cccc(CCCCCCC(=O)O)c2)c(C)c1 [Example 2, 7-(3-(N-(2,4,6-trimethylbenzyl)sulfamoyl)phenyl)heptanoic acid] | 3.2 ± 0.47 | 2.1 ± 0.52 | efficacious | efficacious
– | 6.2 | low microMolar range | low microMolar range | Inactive | Cc1cc(C)c(NS(=O)(=O)c2cccc(CCCCCC(=O)O)c2)c(C)c1 [Example 11, 6-{3-[(2,4,6-trimethylphenyl)sulfamoyl]phenyl}hexanoic acid] | 1.71 ± 0.21 | 1.87 ± 0.27 | efficacious | efficacious
12.8 | 16.5 | low microMolar range | low microMolar range | – | Cc1cc(F)cc(-c2ccccc2)c1NS(=O)(=O)c1cccc(CCCCCCC(=O)O)c1 [Example 10, 7-(3-(N-(5-fluoro-3-methyl-[1,1′-biphenyl]-2-yl)sulfamoyl)phenyl)heptanoic acid] | 4.7 | 2.5 | efficacious | efficacious
23.7 | 11.1 | – | – | – | Cc1cc(-c2ccccc2)cc(C)c1NS(=O)(=O)c1cccc(CCCCCCC(=O)O)c1 [Example 32, 7-(3-(N-(3,5-dimethyl-[1,1′-biphenyl]-4-yl)sulfamoyl)phenyl)heptanoic acid] | 3.67 ± 0.9 | 4.51 ± 0.59 | – | –
20.1 | 18.9 | – | – | – | CCn1ncc(NS(=O)(=O)c2cccc(CCCCCCC(=O)O)c2)n1 [Example 26, 7-(3-(N-(2-ethyl-2H-1,2,3-triazol-4-yl)sulfamoyl)phenyl)heptanoic acid] | 1.82 ± 0.41 | 2.81 ± 0.72 | – | –
8.4 | 12.4 | – | – | – | O=C(O)CCCCCCc1cccc(S(=O)(=O)NC2=NC3CCCCC3N2)c1 (centres unmarked) [Example 29, 7-(3-(N-(3a,4,5,6,7,7a-hexahydro-1H-benzo[d]imidazol-2-yl)sulfamoyl)phenyl)heptanoic Acid] | 1.12 ± 0.4 | 2.89 ± 0.81 | – | –
6.1 | 4.3 | – | – | – | Cc1cc(F)cc(C)c1NS(=O)(=O)c1ccc(CCCCCCC(=O)O)cc1 [Example 25, 7-{4-[(4-fluoro-2,6-dimethylphenyl)sulfamoyl]phenyl}heptanoic acid] | 4.1 ± 0.78 | 3.2 ± 0.31 | – | –

— patent publication US10508090B2, “Sulfonamides as GPR40- and GPR120-agonists” (DOMPÉ FARMACEUTICI S.P.A., priority 2016, dated 2019)
